From US12516341B2, “Use of flavonoid glycoside substance and glycosyltransferase gene for regulating resistance of plants to weeds” (ZHONGKENONGFU(BEIJING) BIOTECHNOLOGY CO., LTD, priority 2020, dated 2026)

Assays:
barnyardgrass = assay: External application of compound to barnyardgrass seeds on agar, root length; format: in vivo; conditions: external application concentration 500 mg/L in 0.8% agar; 28° C. in the dark for 3 days; compared with control
Procedure: (§1) The reasons for choosing lettuce and barnyardgrass in the external application experiment were: lettuce was a common indicator crop reported in the literature for external application of allelopathic experiments, while barnyardgrass was the main weed in paddy fields.
(§2) (1) The compound of tricin-5-O-glucopyranoside was dried to a powder with a centrifugal concentrator and weighed, and an appropriate amount of sterile water was added to give a final concentration of 10 mg/mL.
(§3) (2) 500 mL of 0.8% agar was prepared and sterilized in an autoclave.
(§4) (3) The sterilized agar was placed in an ultra-clean bench and cooled to room temperature (note: the medium was not allowed to solidify), and then 4.75 mL of medium was accurately pipetted into a sterilized 10 mL centrifuge tube. 250 μL of the 10 mg/mL compound solution was added to give a final compound concentration of 500 mg/L. The medium containing the compound was quickly poured into a 10 cm×10 cm square dish, and the square dish was shaken quickly to make the medium evenly spread in the square dish. A medium in which 250 μL of sterile water was added to 4.75 mL of the medium was used as a control.
(§5) (4) Barnyardgrass and lettuce seeds were washed several times with distilled water, respectively, and then dried on sterile filter paper. […]
(§6) (7) Phenotypic statistics: the root length of each treated material was counted after 3 days. […]

lettuce = assay: External application of compound to lettuce seeds on agar, root length; format: in vivo; conditions: external application concentration 500 mg/L in 0.8% agar; 28° C. in the dark for 3 days; compared with control
Procedure: as §1, §2, §3, §4, §5, §6

[1] = tested on: Os07g0503900 recombinant protein; assay: In vitro enzyme activity of Os07g0503900 (glycosylation of tricin with UDPG, UPLC-MS detection); format: biochemical, rice; conditions: glycosyl donor UDPG; 30° C. for 1 h; pH 7.0; product tricin-5-O-glucopyranoside
Procedure: (1) The enzymatic reaction system was: Tris-HCl (pH 7.0, 50 mM, containing 10 mM DTT) 38 μL, 10 mM glycosyl acceptor (the glycosyl acceptor of Os07g0503900 was tricin) 1 μL, 100 mM glycosyl donor (UDPG) 1 μL, and 10 μL of the Os07g0503900 recombinant protein obtained in step 2 (Os07g0503900 protein concentration was 3.77 μg/μL). The reaction was carried out in a water bath at 30° C. for 1 h, and then quenched with an equal volume of methanol. A sample of the protein obtained from the E. coli transformed into the pMAL-c2X empty vector according to the above-mentioned step 2 was added as a control.
(2) Enzyme activity product detection: The sample in (1) was centrifuged at 4° C., 12,000 rpm for 10 min, and 30 μL was taken for detection by UPLC-MS (Agilent 1290UPLC-6540Q-TOF). Mobile phase A phase: 0.1% formic acid aqueous solution, % represented volume percentage; B phase: acetonitrile. Elution gradient: 0-2 min: 5% B-10% B, 2-12 min: 10% B-25% B, 12-18 min: 25% B-70% B, 18-23 min: 70% B-90% B, 23-25 min: 90% B-100% B, 25-30 min: 100% B, post-run for 5 min, % all represented volume percentage. The flow rate was 0.3 mL/min, the column temperature: 40° C., and the injection volume: 5 μL. Electrospray ionization (ESI) was used for detection in positive ion mode. The carrier gas was high-purity nitrogen at a pressure of 40 psi and a temperature of 325° C.

SMILES | inhibitory effect on the growth of barnyardgrass (root length) (barnyardgrass) | inhibitory effect on the growth of lettuce (root length) (lettuce) | glycosylation of tricin by Os07g0503900 in vitro (new chromatographic peak vs empty vector control) [1]
COc1cc(-c2cc(=O)c3c(O[C@@H]4O[C@H](CO)[C@@H](O)[C@H](O)[C@H]4O)cc(O)cc3o2)cc(OC)c1O [tricin-5-O-glucopyranoside] | very significant ability to inhibit the growth | very significant ability to inhibit the growth | –
COc1cc(-c2cc(=O)c3c(O)cc(O)cc3o2)cc(OC)c1O [tricin] | not obvious | not obvious | Os07g0503900 can catalyze the glycosylation of tricin in vitro
